For 22 compounds, EC50 and Emax results are on record in patent publication US20190367516A1 (Bayer Pharma Aktiengesellschaft, priority 2015, published 2019).

As a reminder, the EC50 is the concentration giving half of the maximal effect. A high value points to weaker potency.

In this test the target is T1, human M2 receptor (Homo sapiens, UniProt P08172).
T1 sequence (P08172 1-466): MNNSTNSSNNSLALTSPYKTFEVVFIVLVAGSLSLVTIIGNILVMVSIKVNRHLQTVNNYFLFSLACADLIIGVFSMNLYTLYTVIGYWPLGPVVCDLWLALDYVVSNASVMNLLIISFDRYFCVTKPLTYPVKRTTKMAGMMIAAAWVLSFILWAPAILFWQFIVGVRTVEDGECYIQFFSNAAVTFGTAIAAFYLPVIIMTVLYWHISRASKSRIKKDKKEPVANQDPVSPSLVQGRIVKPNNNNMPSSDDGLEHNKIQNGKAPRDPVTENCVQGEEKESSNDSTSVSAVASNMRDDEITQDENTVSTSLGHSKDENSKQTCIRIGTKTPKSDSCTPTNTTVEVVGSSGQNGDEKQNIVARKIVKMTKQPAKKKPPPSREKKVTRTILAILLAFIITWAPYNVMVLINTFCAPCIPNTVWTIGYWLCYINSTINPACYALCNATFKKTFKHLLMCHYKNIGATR
The note with it: for Emax: read-out: Efficiency, boosting of the acetylcholine effect at EC20 acetylcholine concentration.

Where [1] appears, read: Receptor activity EC50, M2-GIRK1/4 activation test, acetylcholine at EC20, allosteric potency, in some cases mean values from two or more determinations.
[2] abbreviates: Receptor activity EC50, allosteric potency at EC20 acetylcholine, M2-GIRK1/4 reporter cells, in some cases mean of two or more determinations.

Like-named read-outs stand apart in the source and are kept apart here.

Consider `O=C(NC12CC3CC(CC(C3)C1)C2)c1cn(-c2ccc(F)cc2F)c2nc(N3CC[C@H](F)C3)ccc2c1=O` [Example 61, 1-(2,4-Difluorophenyl)-7-[(3S)-3-fluoropyrrolidin-1-yl]-4-oxo-N-(tricyclo[3.3.1.1^3,7]dec-1-yl)-1,4-dihydro-1,8-naphthyridine-3-carboxamide], for which the EC50 under setting [1] was 16 nM.

Under setting [2], `O=C(NC(c1ccccc1Cl)C(F)(F)F)c1cn(-c2c(F)cc(F)cc2F)c2nc(N3CCNC3=O)ccc2c1=O` (single isomer, unassigned) [Example 564, N-[1-(2-Chlorophenyl)-2,2,2-trifluoroethyl]-4-oxo-7-(2-oxoimidazolidin-1-yl)-1-(2,4,6-trifluorophenyl)-1,4-dihydro-1,8-naphthyridine-3-carboxamide] yielded an EC50 of 42 nM. In addition, the Emax (M2-GIRK1/4 reporter cells) worked out at 89%.

Under setting [1], `O=C(NC12CC3CC(CC(C3)C1)C2)c1cn(-c2ccc(F)cc2F)c2nc(NCCF)ccc2c1=O` [Example 83, 1-(2,4-Difluorophenyl)-7-[(2-fluoroethyl)amino]-4-oxo-N-(tricyclo[3.3.1.1^3,7]dec-1-yl)-1,4-dihydro-1,8-naphthyridine-3-carboxamide] gave an EC50 of 110 nM.

Under setting [1], `CC(C)CC(NC(=O)c1cn(-c2ccc(F)cc2F)c2nc(NCC(F)F)ccc2c1=O)C(F)(F)F` (racemic) [Example 125, rac-7-[(2,2-Difluoroethyl)amino]-1-(2,4-difluorophenyl)-4-oxo-N-[1,1,1-trifluoro-4-methylpentan-2-yl]-1,4-dihydro-1,8-naphthyridine-3-carboxamide] yielded an EC50 of 116 nM.

On to `O=C(NC12CC(C1)C2)c1cn(-c2c(F)cc(F)cc2F)c2nc(N3CC(O)C4(CC4)C3)ccc2c1=O` (single isomer, unassigned) [Example 627, N-(Bicyclo[1.1.1]pent-1-yl)-7-[7-hydroxy-5-azaspiro[2.4]hept-5-yl]-4-oxo-1-(2,4,6-trifluorophenyl)-1,4-dihydro-1,8-naphthyridine-3-carboxamide], for which, under setting [2], the EC50 is 140 nM. Besides, the Emax (M2-GIRK1/4 reporter cells) turned out to be 83.5%.

Turning to `O=C(NC1(C(F)(F)F)CC1)c1cn(-c2ccc(F)cc2F)c2nc(N3CC[C@H](F)C3)ccc2c1=O` [Example 68, 1-(2,4-Difluorophenyl)-7-[(3S)-3-fluoropyrrolidin-1-yl]-4-oxo-N-[1-(trifluormethyl)cyclopropyl]-1,4-dihydro-1,8-naphthyridine-3-carboxamide], the EC50 under setting [1] is 58 nM.

For `O=C(N[C@@H](C1CC1)C(F)(F)F)c1cn(-c2c(F)cc(F)cc2F)c2nc(N3CCC(F)(CO)CC3)ccc2c1=O` [Example 461, N-[(1 S)-1-Cyclopropyl-2,2,2-trifluoroethyl]-7-[4-fluoro-4-(hydroxymethyl)piperidin-1-yl]-4-oxo-1-(2,4,6-trifluorophenyl)-1,4-dihydro-1,8-naphthyridine-3-carboxamide], the EC50 under setting [2] was 39 nM. Further, the Emax (M2-GIRK1/4 reporter cells) is 89%.

Turning to `CC[C@H](NC(=O)c1cn(-c2c(F)cc(F)cc2F)c2nc(N(C)C[C@H](C)O)ccc2c1=O)C(F)(F)F` [Example 497], a half-maximal effect under setting [2] (EC50) was put at 29 nM. Under “M2-GIRK1/4 reporter cells”, the Emax came to 92%.

For `CC(C)C(C)NC(=O)c1cn(-c2c(F)cc(F)cc2F)c2nc(N3C[C@@H](O)CC3=O)ccc2c1=O` (stereo in doubt) [Example 482, 7-[(4S)-4-Hydroxy-2-oxopyrrolidin-1-yl]-N-[(2R)-3-methylbutan-2-yl]-4-oxo-1-(2,4,6-trifluorophenyl)-1,4-dihydro-1,8-naphthyridine-3-carboxamide], the EC50 under setting [2] came to 13 nM. Moreover, where the note is “M2-GIRK1/4 reporter cells”, the Emax came out at 98.5%.

In turn, `CC(C)(CC(F)(F)F)NC(=O)c1cn(-c2c(F)cc(F)cc2F)c2nc(N3CC(O)C4(CC4)C3)ccc2c1=O` (single isomer, unassigned) [Example 571, 7-[7-Hydroxy-5-azaspiro[2.4]hept-5-yl]-4-oxo-N-(4,4,4-trifluoro-2-methylbutan-2-yl)-1-(2,4,6-trifluorophenyl)-1,4-dihydro-1,8-naphthyridine-3-carboxamide] displayed a concentration giving a half-maximal response (EC50) under setting [2] of 12 nM.

Under setting [1], `CC(C)(CC(F)(F)F)NC(=O)c1cn(-c2c(F)cc(F)cc2F)c2nc(N3CCNC3=O)ccc2c1=O` [Example 376, 4-Oxo-7-(2-oxoimidazolidin-11-yl)-N-(4,4,4-trifluoro-2-methylbutan-2-yl)-1-(2,4,6-trifluorophenyl)-1,4-dihydro-1,8-naphthyridine-3-carboxamide] registered an EC50 of 16 nM.

The compound `O=C(NC12CC3CC(CC(F)(C3)C1)C2)c1cn(-c2ccc(F)cc2F)c2nc(N3CC[C@H](F)C3)ccc2c1=O` [Example 62, 1-(2,4-Difluorophenyl)-7-[(3S,)-3-fluoropyrrolidin-1-yl]-N-(3-fluorotricyclo[3.3.1.1^3,7]dec-1-yl)-4-oxo-1,4-dihydro-1,8-naphthyridine-3-carboxamide] gave an EC50 under setting [1] of 17 nM.

Under setting [2], `C[C@H](NC(=O)c1cn(-c2c(F)cc(F)cc2Cl)c2nc(N3CCNC3=O)ccc2c1=O)C(F)(F)F` [Example 419, 1-(2-Chloro-4,6-difluorophenyl)-4-oxo-7-(2-oxoimidazolidin-1-yl)-N-[(2S)-1-1,1,1-trifluoropropan-2-yl]-1,4-dihydro-1,8-naphthyridine-3-carboxamide] gave a half-maximal effective concentration (EC50) of 46 nM. Further, the Emax (M2-GIRK1/4 reporter cells) came to 91.5%.

With `CCC(NC(=O)c1cn(-c2ccc(F)cc2F)c2nc(N(C)CC(F)F)ccc2c1=O)C(F)(F)F` (racemic) [Example 114, rac-7-[(2,2-Difluoroethyl)(methyl)amino]-1-(2,4-difluorophenyl)-4-oxo-N-[1,1,1-trifluorobutan-2-yl]-1,4-dihydro-1,8-naphthyridine-3-carboxamide], the EC50 under setting [1] worked out at 98 nM.

As for `O=C(NC12CC3CC(CC(C3)C1)C2)c1cn(-c2ccc(F)cc2F)c2nc(NCCO)ccc2c1=O` [Example 79, 1-(2,4-Difluorophenyl)-7-[(2-hydroxyethyl)amino]-4-oxo-N-(tricyclo[3.3.1.1^3,7]dec-1-yl)-1,4-dihydro-1,8-naphthyridine-3-carboxamide], under setting [1], the EC50 stood at 144 nM.

Under setting [2], `O=C(NC12CC(C1)C2)c1cn(-c2c(F)cc(F)cc2F)c2nc(N3CC(O)C4(CC4)C3)ccc2c1=O` (single isomer, unassigned) [Example 628, N-(Bicyclo[1.1.1]pent-1-yl)-7-[7-hydroxy-5-azaspiro[2.4]hept-5-yl]-4-oxo-1-(2,4,6-trifluorophenyl)-1,4-dihydro-1,8-naphthyridine-3-carboxamide] had an EC50 of 32 nM.

`O=C(NC12CC3CC(CC(C3)C1)C2)c1cn(-c2ccc(F)cc2F)c2nc(N3CCCCC3=O)ccc2c1=O` [Example 165, 1-(2,4-Difluorophenyl)-4-oxo-7-(2-oxopiperidin-1-yl)-N-(tricyclo[3.3.1.1^3,7]dec-1-yl)-1,4-dihydro-1,8-naphthyridine-3-carboxamide] gave a concentration giving a half-maximal response (EC50) under setting [1] of 11 nM.

On to `CCCC(NC(=O)c1cn(-c2ccc(F)cc2F)c2nc(NCCF)ccc2c1=O)C(F)(F)F` (racemic) [Example 86, rac-1-(2,4-Difluorophenyl)-7-[(2-fluoroethyl)amino]-4-oxo-N-[(2R)-1,1,1-trifluoropentan-2-yl]-1,4-dihydro-1,8-naphthyridine-3-carboxamide], for which the EC50 under setting [1] was found to be 108 nM.

The compound `C[C@@H](COC(F)(F)F)NC(=O)c1cn(-c2c(F)cc(F)cc2Cl)c2nc(N3C[C@@H](O)CC3=O)ccc2c1=O` [Example 421, 1-(2-Chloro-4,6-difluorophenyl)-7-[(4S)-4-hydroxy-2-oxopyrrolidin-1-yl]-4-oxo-N-[(2S)-1-(trifluoromethoxy)propan-2-yl]-1,4-dihydro-1,8-naphthyridine-3-carboxamide] displayed an EC50 under setting [2] of 48 nM. Moreover, the Emax (M2-GIRK1/4 reporter cells) was found to be 100%.

For `O=C(N[C@@H](C1CC1)C(F)(F)F)c1cn(-c2c(F)cc(F)cc2F)c2nc(N3C[C@H](C(=O)O)OC3=O)ccc2c1=O` [Example 670, (5R)-3-[6-{[(1S)-1-Cyclopropyl-2,2,2-trifluoroethyl]carbamoyl}-5-oxo-8-(2,4,6-trifluorophenyl)-5,8-dihydro-1,8-naphthyridin-2-yl]-2-oxo-1,3-oxazolidine-5-carboxylic acid], the EC50 under setting [2] was 1450 nM. The Emax (M2-GIRK1/4 reporter cells) was determined as 66.5%.

In turn, `O=C(NC12CC3CC(CC(C3)C1)C2)c1cn(-c2ccc(F)cc2F)c2nc(N3CC(F)(F)C(F)(F)C3)ccc2c1=O` [Example 77, 1-(2,4-Difluorophenyl)-4-oxo-7-(3,3,4,4-tetrafluoropyrrolidin-1-yl)-N-(tricyclo[3.3.1.1^3,7]dec-1-yl)-1,4-dihydro-1,8-naphthyridine-3-carboxamide] registered an EC50 under setting [1] of 666 nM.

Turning to `COC(=O)[C@H]1CN(c2ccc3c(=O)c(C(=O)N[C@@H](C4CC4)C(F)(F)F)cn(-c4c(F)cc(F)cc4F)c3n2)C(=O)O1` [Example 669, Methyl (5R)-3-[6-{[(1S)-1-cyclopropyl-2,2,2-trifluoroethyl]carbamoyl}-5-oxo-8-(2,4,6-trifluorophenyl)-5,8-dihydro-1,8-naphthyridin-2-yl]-2-oxo-1,3-oxazolidine-5-carboxylate], it took 106 nM to reach a half-maximal effect under setting [2] (EC50). Besides, the Emax (M2-GIRK1/4 reporter cells) turned out to be 84.9%.
